The values below come from US20160214926A1, “DIPHENYLOXYALKYLAMINE DERIVATIVES AND ARYLOXYALKYLAMINE DERIVATIVES, PHARMACEUTICAL COMPOSITION, USE OF SAID PHARMACEUTICAL COMPOSITION FOR TREATING, PREVENTING OR INHIBITING CHRONIC PULMONARY INFLAMMATORY DISEASES AND METHOD FOR TREATING OR PREVENTING SUCH DISEASES” (FUNDACAO OSWALDO CRUZ, priority 2013, published 2016).

In test [1] the test system is sodium current in GH3 cells. The experiment in a line: Inhibition of sodium current in GH3 cells, patch clamp. Type of test: cell-based, rat. In general terms: In patch-clamp work, channel activity is measured electrically.
For a further test, the system named is rat tracheal rings. The experiment in a line: Inhibition of carbachol-induced contraction of rat tracheal rings (pretreatment). To be noted: for IC50 / Emax: carbachol 10 μM, pretreated 10 minutes; for Emax: mean ± SEM, read-out: EMAX maximum effect of inhibition of carbachol-induced contraction. An excerpt:
In this study, Wistar rats of both sexes were used, weighing between 200 and 250 g, coming from the Laboratory Animal Breeding Center of Fundacdo Oswaldo Cruz. As previously described (Coelho et al., 2008), the animals were sacrificed by exposure to air atmosphere enriched with CO2, Then, the anterior cervical region was opened so that the trachea could be located and removed. It was then transferred to a Petri dish containing Krebs solution with the following composition (mM): NaCl (118), KCl (4.8), CaCl2 (2.5), MgSO4 (1.2), KH2PO4 (1.2), NaHCO3 (24), and glucose (11). The total segment was divided into fragments of about 3 to 4 rings, which were kept in another Petri dish containing Krebs solution. Each fragment was mounted vertically on a 10 ml cuvette with Krebs solution maintained at 37° C. and aerated with carbogen mixture (95% O2 and 5% CO2). The lower rod is fixed to the cuvette base and the top portion was attached to the isometric transducer for measuring the voltage variation of the fragment. The transducer was connected to a device which transforms the voltage variation in digital record. The fragments were subjected to a basal voltage of 1 g and were calibrated, so that the subsequent contractions could be expressed as a percentage of this 1 g voltage. The solutions were introduced inside the cuvettes with the aid of an automatic pipette. The end of the tip was always placed at the same height and position, without touching the muscle. The tracheal rings were initially contracted with 2.5 μM of carbachol. When the contractions reached the plateau, each segment was washed until the total relaxation of the smooth muscle. […] All results were expressed as percentage of the contraction produced by 2.5 μM of carbachol (Coelho et al., 2008).

For test [2], the system named is mast cells of the RBL-2H3 line. The test is described as follows: Antigen-induced degranulation of sensitized mast cells (beta-hexosaminidase release). Type of test: cell-based. To be noted: Rattus norvegicus; for Emax: RBL-2H3, DNP-BSA, read-out: EMAX blocking of anaphylactic mast cell degranulation. As to the method:
For this study, mast cells of the RBL-2H3 line were used, as previously reported (Beaven et al., 1987). […] The cells were then dissociated from the plate using trypsin, centrifuged at 1000 rpm for 5 minutes and distributed in 48-well plates at a density of 125,000 cells per well. The cells were sensitized with monoclonal DNP-specific […] (1 μg/mL) diluted in the same medium used for the cultivation and maintained in the oven for 20 hours. After this period, the cells were washed with Tyrode-gelatin and subjected to treatment with increasing concentrations of […]-209 or mexiletine for 60 minutes. Then, incubation was performed with DNP-BSA (10 ng/ml) for a further period of 60 minutes. After this period, 10 μL of supernatant were collected from each well and added to a 96-well plate. The cells were lysed with 200 μL of 0.1% Triton X-100 and 10 μL of the lysate of each plate were added to the 96-well plate. Then, 40 μL of substrate for the β-hexosaminidase enzyme were added to the samples. After 40 minutes of reaction, reaction stopping solution (0.2 M glycine) was added, generating a colorimetric response, which was measured by spectrophotometer (λ=405 nm).

Test [3] deals with rat tracheas pre-contracted with carbachol. The test is described as follows: Relaxation of rat trachea pre-contracted with carbachol. The method, then: To assess the potential relaxing effect of the respiratory smooth muscle, rat tracheas were obtained and maintained in an isolated organ bath, as previously described (Coelho et al., 2008). The tracheal segments were then pre-contracted with carbachol at the concentration of 2.5 μM and subjected to increasing concentrations of the tested compounds. All results were expressed as percentage of the contraction produced by carbachol (Coelho et al., 2008).

Test [4] deals with A/J mice. The test is described as follows: Ovalbumin asthma model: airway hyperreactivity, leukocyte infiltration, cytokines (nebulization). Type of test: in vivo. The method, then: Male A/J mice (18-20 g), coming from the Laboratory Animal Breeding Center of Oswaldo Cruz Foundation, were used in the experiments. The animals were previously sensitized with a mixture of ovalbumin (OVA) (50 μg) (Grade V; Sigma, St. Louis, Mo., USA) and aluminum hydroxide (5 mg) administered subcutaneously on day 0 with boost on day 14 (equal suspension administered intraperitoneally). Nasal instillations of OVA (25 μg/25 μl in sterile 0.9% NaCl) were administered on days 14, 21, 28 and 35, with the hyperresponsiveness analysis performed 24 hours after the last challenge. […] That is, the treatments took place after the installation of asthma framework, reflecting a therapeutic action of the respective compounds analyzed.
The effect of the treatments on bronchial hyperreactivity was investigated by measuring the resistance changes and pulmonary elastance, using invasive barometric plethysmography whole-body system (Buxco, USA), as previously described (Olsen et al., 2012).

For the next test, the system named is tracheal rings. The experiment in a line: Anaphylactic (ovalbumin-induced) contraction of tracheal rings from sensitized rats. Also on record: species or system Wistar rats. The method, then:
In this study, Wistar rats of both sexes were used, weighing between 200 and 250 g, coming from the Laboratory Animal Breeding Center of Fundacdo Oswaldo Cruz. As described previously (da Costa et al., 2007), the animals were sensitized by injection into the dorsal subcutaneous tissue with mixture containing 50 μg of ovalbumin and 5 mg of aluminum hydroxide on days 0 and 7. On the 14th day after the first sensitization, the animals were sacrificed for the removal of the trachea. After a stabilization period of 30 minutes, the tracheal rings were contracted initially with carbachol (2.5 μM) for testing the feasibility and reproducibility of the responses of the preparation.
The tracheal rings were exposed to increasing concentrations of JME-173 (3-30 μM), or carrier (0.9% NaCl) for 30 minutes before the triggering of the contractile response triggered by ovalbumin (100 μg/ml). Salmeterol (30 μM) was used as reference treatment. The responses were expressed as mean±Standard Error of the Mean of at least 5 tracheal segments. All results were expressed as percentage of the contraction produced by 2.5 μM of carbachol.

The subject of test [5] is A/J mice. The experiment in a line: Ovalbumin asthma model: hyperreactivity, mucus production, peribronchial fibrosis (nebulization). Format: in vivo. An excerpt: Male A/J mice (18-20 g), coming from the Laboratory Animal Breeding Center of Oswaldo Cruz Foundation, were used in the experiments. The sensitization procedures, antigen challenge and treatment used in this study followed the experimental protocol shown in FIG. 6. Histological techniques were used for the quantification of mucus and peribronchial fibrosis, following previously reported and validated experimental protocols (Serra et al., 2012).

Where [6] appears, read: trachea pre-contracted with carbachol 2.5 μM, mean±SEM.

Where two headings read alike, the source gives them in different places.

As usually defined, the IC50 is the concentration that gives 50% inhibition. As for `NC1=N[C@H](O)[C@H]2[C@H]3O[C@]4(O)O[C@@H]([C@@H](O)[C@@]2(N1)[C@@H]4O)[C@]3(O)CO` [tetrodotoxin], the IC50 in test [1] (read-out: IC50 inhibition of sodium current) came to 0.304 µM.
By Emax is commonly meant the size of the effect at its maximum, as opposed to the concentration needed. With `Cc1cccc(C)c1OCC(C)N` (centres unmarked) [Mexiletine, 2-(2-aminopropoxy)-1,3-dimethylbenzene, reference compound], the concentration for half-maximal inhibition (IC50) is roughly 278 µM in test [1] (GH3 cells, patch clamp, read-out: IC50 for blocking the sodium current); 466 µM with rat tracheal rings (Rattus norvegicus); 382 µM in test [2] (RBL-2H3, 1 h, RBL-2H3, DNP-BSA 10 ng/ml, 60 minutes treatment, read-out: IC50 blocking of anaphylactic mast cell degranulation). The Emax worked out at 87.7 ± 4.9% with rat tracheal rings (Rattus norvegicus) and 100% in test [2]. For the same compound, in the test with rat tracheal rings (compound 1000 μM), the “blocking of the muscarinic contraction” value was “about 88%”. The maximum relaxation effect in test [3] (setting [6]) worked out at 40%.
By inhibition is commonly meant the drop in the measured response relative to a control, in per cent. One may read the EC50 as the concentration giving half of the maximal effect. As to `Cc1cc(OCC(C)N)cc(C)c1Br.Cl` (centres unmarked) [JME-173], in the test on A/J mice [4] (nebulization 2%), the “IL-5 generation in lung tissue” value was “blocking”, the “IL-13 generation in lung tissue” value is reported as “blocking”, the “eotaxin-2 generation in lung tissue” value is “blocking” and the “increased levels of anti-inflammatory cytokine IL-10” value was “without change”. The “airway hyperreactivity (lung resistance and elastance after methacholine)” value in the test on A/J mice [4] (nebulization 2% for 30 minutes, OVA sensitized and challenged) was “abolished”. Also, in the test with rat tracheal rings (Rattus norvegicus), the IC50 stood at 44.4 µM and the Emax came to 97.9 ± 4.7%. Moreover, the inhibition at 100 µM with rat tracheal rings (Rattus norvegicus, compound 100 μM, pre-treatment 10 minutes, read-out: inhibition of the muscarinic contraction) is roughly 98%. Also, the 50% inhibitory concentration (IC50) with rat tracheal rings turned out to be 44.3 µM. For the same compound, the Emax in test [2] turned out to be 97%. Besides, the EC50 with tracheal rings (Rattus norvegicus, ovalbumin 100 μg/ml, 30 minutes pretreatment, read-out: EC50 inhibition of anaphylactic contraction response) came out at 8.3 µM. For the same compound, the “blocking of anaphylactic contraction” value in the test on tracheal rings (compound 30 μM) is given as “completely inhibited”. Besides, the airway hyperreactivity entry in the test with A/J mice [5] (nebulization 0.5%, 1% or 2% for 30 minutes) is reported as “able to block”. For the same compound, the “inhibition of mucus production in airways” value in the test on A/J mice [5] (nebulization 0.5%, PAS staining, quantitative analysis) is “about 70%”. The peribronchial fibrotic response result in the test on A/J mice [5] (nebulization, Gömöri trichrome, morphometry) is listed as “clearly abolished”. This compound registered an EC50 in test [3] (Rattus norvegicus, trachea pre-contracted with carbachol 2.5 μM, mean±SEM) of 3100 µM. Besides, in test [3] (pre-contracted trachea), the “times more potent as relaxation inducers than mexiletine” value is 47 times. Besides, the maximum relaxation effect in test [3] (setting [6]) is reported as 118%.
